In experiment [1] the target is Thioredoxin reductase (Homo sapiens, UniProt Q16881+Q9NNW7+Q86VQ6). Kind of experiment: Inhibition of human TrxR. It counts as protein assay.
Experiment [2] addresses T1, Thioredoxin reductase (Plasmodium falciparum 3D7) (UniProt P61076).
T1 sequence (whole entry): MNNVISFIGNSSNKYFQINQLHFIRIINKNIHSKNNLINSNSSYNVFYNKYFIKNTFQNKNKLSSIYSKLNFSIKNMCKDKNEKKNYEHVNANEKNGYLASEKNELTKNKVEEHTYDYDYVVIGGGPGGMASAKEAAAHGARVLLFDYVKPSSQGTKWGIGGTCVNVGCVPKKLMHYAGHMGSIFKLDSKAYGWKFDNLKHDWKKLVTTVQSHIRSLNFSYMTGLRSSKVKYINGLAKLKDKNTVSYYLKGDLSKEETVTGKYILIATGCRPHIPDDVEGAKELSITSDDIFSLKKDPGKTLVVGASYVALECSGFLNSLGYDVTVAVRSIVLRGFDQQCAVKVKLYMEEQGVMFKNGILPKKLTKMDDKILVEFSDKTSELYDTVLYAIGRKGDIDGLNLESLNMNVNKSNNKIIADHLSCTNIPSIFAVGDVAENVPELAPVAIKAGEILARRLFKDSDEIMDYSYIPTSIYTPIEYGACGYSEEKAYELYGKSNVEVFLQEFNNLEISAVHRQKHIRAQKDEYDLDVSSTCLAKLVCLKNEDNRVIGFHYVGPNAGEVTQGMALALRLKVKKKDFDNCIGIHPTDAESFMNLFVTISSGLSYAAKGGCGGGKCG
Kind of experiment: Inhibition of Plasmodium falciparum TrxR at 100 uM.

The target of experiment [3] is T2, Thioredoxin reductase (Plasmodium falciparum 3D7, UniProt P61076).
T2 sequence (P61076 whole entry): T1 sequence (whole entry)
As to the kind of experiment: Inhibition of Plasmodium falciparum TrxR.

Experiment [4] has as its target T3, Glutathione reductase, mitochondrial (Homo sapiens) (UniProt P00390).
T3 sequence (whole entry): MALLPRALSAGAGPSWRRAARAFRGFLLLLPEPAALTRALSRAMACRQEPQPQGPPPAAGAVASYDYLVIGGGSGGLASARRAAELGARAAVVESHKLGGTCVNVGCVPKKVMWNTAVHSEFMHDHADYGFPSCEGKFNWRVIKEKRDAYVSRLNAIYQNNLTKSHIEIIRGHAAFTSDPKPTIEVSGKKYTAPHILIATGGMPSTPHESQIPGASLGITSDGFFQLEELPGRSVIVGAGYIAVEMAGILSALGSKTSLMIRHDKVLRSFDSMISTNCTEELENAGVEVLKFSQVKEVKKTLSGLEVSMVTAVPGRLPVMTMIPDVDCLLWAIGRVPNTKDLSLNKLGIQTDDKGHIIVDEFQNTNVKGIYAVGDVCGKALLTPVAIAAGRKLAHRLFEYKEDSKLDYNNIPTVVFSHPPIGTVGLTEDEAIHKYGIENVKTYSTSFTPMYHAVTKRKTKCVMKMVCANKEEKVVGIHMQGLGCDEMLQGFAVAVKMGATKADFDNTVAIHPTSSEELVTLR
Kind of experiment: Inhibition of human GR at 2 uM.

Experiment [5] has as its target Glutathione reductase (Plasmodium falciparum 3D7) (UniProt O15770). As to the kind of experiment: Inhibition of Plasmodium falciparum GR at 2 uM.
The test system of experiment [6] is Plasmodium falciparum. As to the kind of experiment: Growth inhibition against Plasmodium falciparum K1. It counts as functional, organism-based.
Experiment [7] addresses T1, Thioredoxin reductase (Plasmodium falciparum 3D7). The following applies: 2 uM.
For experiment [8] the target is unchanged. To be noted: 2 uM. This is another data set of the same source.
Experiment [9] has the same target. To be noted: 100 uM.
The target of experiment [10] is T2, Thioredoxin reductase. As to the kind of experiment: Binding affinity to Plasmodium falciparum TrxR in presence of NADPH.
For experiment [11], the target named is T2, Thioredoxin reductase. As to the kind of experiment: Binding affinity to Plasmodium falciparum TrxR in presence of thioredoxin.
Experiment [12] deals with Plasmodium falciparum. Kind of experiment: Inhibition of Plasmodium falciparum K1 as [3H]hypoxanthine uptake. It counts as functional, organism-based.

Glutathione reductase (Plasmodium falciparum 3D7), sequence (O15770 whole entry): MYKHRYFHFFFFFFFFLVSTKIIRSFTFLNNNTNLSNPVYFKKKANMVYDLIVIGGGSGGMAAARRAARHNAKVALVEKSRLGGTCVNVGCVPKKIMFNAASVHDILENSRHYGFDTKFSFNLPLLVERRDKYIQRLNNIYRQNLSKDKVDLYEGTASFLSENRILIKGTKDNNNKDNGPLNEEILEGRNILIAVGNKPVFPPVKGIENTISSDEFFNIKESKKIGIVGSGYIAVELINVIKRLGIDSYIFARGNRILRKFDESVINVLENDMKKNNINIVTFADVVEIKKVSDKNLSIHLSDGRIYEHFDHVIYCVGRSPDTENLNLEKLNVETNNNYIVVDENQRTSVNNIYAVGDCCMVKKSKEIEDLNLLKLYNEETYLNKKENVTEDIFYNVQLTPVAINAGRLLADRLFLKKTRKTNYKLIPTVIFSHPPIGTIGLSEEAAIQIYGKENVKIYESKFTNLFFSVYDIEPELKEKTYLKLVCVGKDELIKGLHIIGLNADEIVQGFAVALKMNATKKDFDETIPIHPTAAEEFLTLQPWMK

`O=[N+]([O-])c1ccc2c(c1)OCO2` displayed an IC50 against Thioredoxin reductase [1] of over 200 µM. Also, in experiment [2], the inhibition was under 10%.

For `O=[N+]([O-])c1cc(C(F)(F)F)ccc1Sc1ccc(C(F)(F)F)cc1[N+](=O)[O-]`, the values for the half-maximal inhibitory concentration (IC50) on Thioredoxin reductase [1] and against Thioredoxin reductase [3] were over 150 µM and 20 µM, respectively.

As to `O=[N+]([O-])c1cc([N+](=O)[O-])cc(C(F)(F)F)c1`, the results for the IC50 against Thioredoxin reductase [1] and on Thioredoxin reductase [3] were over 200 µM and 30 µM, respectively.

In the case of `O=[N+]([O-])c1cc(C(F)(F)F)cc([N+](=O)[O-])c1Cl` [CHLORALIN], the IC50 on Thioredoxin reductase [1] was 100 µM; at Thioredoxin reductase [3], 8 µM.

`O=[N+]([O-])c1ccc2nccnc2c1`: the IC50 against Thioredoxin reductase [1] is over 200 µM; on Thioredoxin reductase [3], 40 µM.

In the case of `O=[N+]([O-])c1ccc2c(c1[N+](=O)[O-])OCO2`, the IC50 turned out to be 80 µM against Thioredoxin reductase [1] and 10 µM against Thioredoxin reductase [3].

Turning to `O=[N+]([O-])c1cc2nccnc2cc1[N+](=O)[O-]`, the inhibition turned out to be 27% in experiment [4]; 39% in experiment [5]; 70% in experiment [7]; 15% in experiment [8]; 15% in [9]. Besides, the IC50 with Plasmodium falciparum [6] turned out to be 15 µM; at Thioredoxin reductase [1], 140 µM; on Thioredoxin reductase [3], 2 µM.

As to `O=[N+]([O-])c1cccc2nsnc12`, the Ki on Thioredoxin reductase [10] is 1 µM; on Thioredoxin reductase [11] it was 0.65 µM. Moreover, the inhibition in [4] amounted to 81%; in experiment [5], 69%. In addition, the IC50 was 2.9 µM with Plasmodium falciparum [12], 11 µM in the experiment with Plasmodium falciparum [6], 50 µM against Thioredoxin reductase [1] and 2 µM against Thioredoxin reductase [3].

Take `O=[N+]([O-])c1ccc2nsnc2c1`: the values for the IC50 at Thioredoxin reductase [1] and on Thioredoxin reductase [3] were 90 µM and 10 µM, respectively.

Source of the values: ChEMBL document CHEMBL1146972, “Specific inhibitors of Plasmodium falciparum thioredoxin reductase as potential antimalarial agents” (Bioorg Med Chem Lett, 2006).
